Assay results: patent US10065990B2, “Cyclic peptide compound, and preparation method, pharmaceutical composition and use thereof” (HANGZHOU GUANYU BIO-MEDICAL CO., LTD, priority 2013, dated 2018)
Where two headings read alike, the source gives them in different places.

What was measured:
HDAC1 = HDAC1 (Homo sapiens, UniProt Q13547); assay: HDAC biochemical activity measurement (fluorescent substrate deacetylation);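 note: fluorogenic acetyl-lysine substrate (20 µM) deacetylated by HDAC1, then developer releases fluorophore read at 360 nm excitation and 460 nm emission, inhibitor incubated 30 min at 37 °C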
HDAC1, sequence (Q13547 whole entry, species assumed): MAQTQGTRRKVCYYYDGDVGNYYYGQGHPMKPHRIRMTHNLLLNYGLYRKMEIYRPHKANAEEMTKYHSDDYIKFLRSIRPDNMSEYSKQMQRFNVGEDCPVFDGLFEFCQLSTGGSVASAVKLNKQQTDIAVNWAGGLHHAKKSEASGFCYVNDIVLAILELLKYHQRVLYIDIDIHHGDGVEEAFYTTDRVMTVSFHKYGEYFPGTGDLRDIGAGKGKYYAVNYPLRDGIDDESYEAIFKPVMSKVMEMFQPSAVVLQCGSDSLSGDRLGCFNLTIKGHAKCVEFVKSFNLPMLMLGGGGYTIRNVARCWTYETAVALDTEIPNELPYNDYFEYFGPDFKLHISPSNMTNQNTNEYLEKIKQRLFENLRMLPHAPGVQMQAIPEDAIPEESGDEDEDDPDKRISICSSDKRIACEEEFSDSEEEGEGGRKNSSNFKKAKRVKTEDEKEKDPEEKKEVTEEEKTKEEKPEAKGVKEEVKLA

HDAC2 = HDAC2 (Homo sapiens, UniProt Q92769); assay: as above; conditions: 37° C. 30 minutes;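 note: HDAC2 enzyme with an acetyl-lysine fluorescent substrate, then developer added, fluorescence read at excitation 360 nm and emission 460 nm, inhibition measured across several compound concentrations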
HDAC2, sequence (Q92769 whole entry, species assumed): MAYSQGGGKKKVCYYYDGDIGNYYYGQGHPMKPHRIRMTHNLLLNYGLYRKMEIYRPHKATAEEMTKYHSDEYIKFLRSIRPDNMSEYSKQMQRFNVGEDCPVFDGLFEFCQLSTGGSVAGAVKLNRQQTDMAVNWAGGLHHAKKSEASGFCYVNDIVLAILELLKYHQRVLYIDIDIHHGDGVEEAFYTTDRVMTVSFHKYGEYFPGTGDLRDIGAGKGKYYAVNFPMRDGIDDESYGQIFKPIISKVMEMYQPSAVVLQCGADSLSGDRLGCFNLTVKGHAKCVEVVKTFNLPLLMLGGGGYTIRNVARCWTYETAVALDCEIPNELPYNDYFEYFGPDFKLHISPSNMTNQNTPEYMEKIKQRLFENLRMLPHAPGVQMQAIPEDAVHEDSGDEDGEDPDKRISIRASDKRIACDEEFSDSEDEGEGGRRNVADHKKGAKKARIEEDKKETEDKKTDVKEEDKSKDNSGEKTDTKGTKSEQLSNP

HDAC7 = molecular target: T1, HDAC7 (Homo sapiens, UniProt Q8WUI4); assay: as above; conditions: HDAC7; 37° C. 30 minutes;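 note: fluorogenic deacetylation assay using acetyl-lysine substrate at 20 µM, enzyme and compound incubated 30 min at 37 °C, then developer added, fluorescence read at 360/460 nm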
T1 sequence (Q8WUI4 1-952): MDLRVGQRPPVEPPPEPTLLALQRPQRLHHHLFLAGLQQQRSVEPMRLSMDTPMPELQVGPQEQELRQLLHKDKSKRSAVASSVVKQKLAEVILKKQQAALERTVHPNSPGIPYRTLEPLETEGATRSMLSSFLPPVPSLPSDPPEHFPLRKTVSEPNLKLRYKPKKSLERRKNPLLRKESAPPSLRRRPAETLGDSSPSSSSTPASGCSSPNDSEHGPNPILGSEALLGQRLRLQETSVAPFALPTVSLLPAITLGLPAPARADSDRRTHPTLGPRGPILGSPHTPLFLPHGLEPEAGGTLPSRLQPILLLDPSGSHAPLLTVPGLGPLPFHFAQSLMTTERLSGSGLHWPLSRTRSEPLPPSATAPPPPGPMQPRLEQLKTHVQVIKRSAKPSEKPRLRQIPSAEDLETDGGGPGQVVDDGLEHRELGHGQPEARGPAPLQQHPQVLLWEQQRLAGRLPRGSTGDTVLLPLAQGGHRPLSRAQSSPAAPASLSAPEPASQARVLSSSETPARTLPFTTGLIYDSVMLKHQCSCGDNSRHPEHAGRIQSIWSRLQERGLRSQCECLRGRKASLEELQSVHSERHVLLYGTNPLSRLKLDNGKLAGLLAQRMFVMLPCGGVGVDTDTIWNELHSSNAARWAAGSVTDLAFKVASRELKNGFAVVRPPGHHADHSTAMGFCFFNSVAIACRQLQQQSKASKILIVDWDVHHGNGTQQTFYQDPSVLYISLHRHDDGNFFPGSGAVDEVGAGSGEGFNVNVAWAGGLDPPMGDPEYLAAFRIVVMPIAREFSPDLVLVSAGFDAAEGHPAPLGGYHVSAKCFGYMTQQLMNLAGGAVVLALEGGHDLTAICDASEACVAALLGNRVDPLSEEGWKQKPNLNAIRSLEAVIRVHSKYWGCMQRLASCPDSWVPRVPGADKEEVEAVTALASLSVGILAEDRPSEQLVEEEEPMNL

[1] = tested on: A549 (human lung cancer cells); assay: MTT cancer cell growth inhibition; assay type: cell-based; conditions: Homo sapiens, A549, 72 h, MTT
Method in brief: (§1)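 Following overnight attachment of 1500 cells per well, each line was exposed to test drug (final 10^−5 to 10^−10 M) for 72 h in a humidified 37° C., 5% CO2 incubator. Four hours with MTT, DMSO dissolution of formazan, and a 570 nm reading yielded viability data used for GI50.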

[2] = tested on: BGC-823 (human gastric cancer cells); assay: MTT cancer cell growth inhibition; assay type: cell-based; conditions: Homo sapiens, BGC-823, 72 h, MTT
Method in brief: as §1

[3] = tested on: Bel-7402 (human hepatoma cells); assay: MTT cancer cell growth inhibition; assay type: cell-based; conditions: Homo sapiens, Bel-7402, 72 h, MTT, 72 hours incubation, Bel-7402 cells; read-out: GI50 Bel-7402
Method in brief: as §1

[4] = tested on: DU145 (human prostate cancer cells); assay: MTT cancer cell growth inhibition; assay type: cell-based; conditions: Homo sapiens, DU-145, 72 h, MTT
Method in brief: as §1

[5] = tested on: HT1080 (human fibrosarcoma cells); assay: MTT cancer cell growth inhibition; assay type: cell-based; conditions: Homo sapiens, HT-1080, 72 h, MTT
Method in brief: as §1

[6] = tested on: Hela (human cervical cancer cells); assay: MTT cancer cell growth inhibition; assay type: cell-based; conditions: Homo sapiens, HeLa, 72 h, MTT
Method in brief: as §1

[7] = tested on: Huh-7 (human hepatoma cells); assay: MTT cancer cell growth inhibition; assay type: cell-based; conditions: Homo sapiens, Huh-7, 72 h, MTT, 72 hours incubation, Huh-7 cells; read-out: GI50 Huh-7
Method in brief: as §1

[8] = tested on: KBM5-T315I (human chronic myelogenous leukemia); assay: MTT cancer cell growth inhibition; assay type: cell-based; conditions: Homo sapiens, 72 h, MTT, 72 hours incubation, KBM5-T315I cells; read-out: GI50 KBM5-T315I
Method in brief: as §1

[9] = tested on: MCF-7 (human breast cancer cells); assay: MTT cancer cell growth inhibition; assay type: cell-based; conditions: Homo sapiens, MCF7, 72 h
Method in brief: as §1

[10] = tested on: MDA-MB-231 (breast cancer cells); assay: MTT cancer cell growth inhibition; assay type: cell-based; conditions: Homo sapiens, MDA-MB-231, 72 h, read-out: GI50 MDA-MB-231, MTT, 72 hours incubation, MDA-MB-231 cells
Method in brief: as §1

[11] = tested on: MOLT-4 (human acute lymphoblastic leukemia cells); assay: MTT cancer cell growth inhibition; assay type: cell-based; conditions: Homo sapiens, MOLT-4, 72 h, MTT
Method in brief: as §1

[12] = tested on: SGC-7901 (human gastric cancer cells); assay: MTT cancer cell growth inhibition; assay type: cell-based; conditions: Homo sapiens, SGC-7901, 72 h, MTT, 72 hours incubation, SGC-7901 cells; read-out: GI50 SGC-7901
Method in brief: as §1

[13] = tested on: U937 (human leukemia cells); assay: MTT cancer cell growth inhibition; assay type: cell-based; conditions: Homo sapiens, U-937, 72 h, MTT
Method in brief: as §1

[14] = HDAC1, 37° C. 30 minutes, read-out: IC50 HDAC1
[15] = Table 2, read-out: IC50 HDAC1, a (compounds of the present invention)
[16] = Table 3, read-out: IC50 HDAC1, D (non-substituent)
[17] = 72 hours incubation, read-out: GI50 A54
[18] = 72 hours, present invention, read-out: GI50 A549, a
[19] = 72 hours incubation, read-out: GI50 BG
[20] = 72 hours, present invention, read-out: GI50 BGC823, a
[21] = 72 hours incubation, read-out: GI50 Du1
[22] = 72 hours, present invention, read-out: GI50 Du145, a
[23] = 72 hours incubation, read-out: GI50 HT1
[24] = 72 hours, present invention, read-out: GI50 HT1080, a
[25] = 72 hours incubation, read-out: GI50 Hela
[26] = 72 hours, present invention, read-out: GI50 Hela, a
[27] = 72 hours incubation, read-out: GI50 MCF
[28] = 72 hours, present invention, read-out: GI50 MCF7, a
[29] = 72 hours incubation, read-out: GI50 Mol
[30] = 72 hours, present invention, read-out: GI50 Molt-4, a
[31] = 72 hours, present invention, read-out: GI50 U937, a
[32] = 72 hours incubation, read-out: GI50 U93

Structure (SMILES) | IC50 (HDAC1; [14]) [µM] | IC50 (HDAC1; [15]) [µM] | IC50 (HDAC1; [16]) [µM] | IC50 (HDAC2) [µM] | IC50 HDAC7 (HDAC7) | GI50 [1, 17] [µM] | GI50 [1, 18] [µM] | GI50 [2, 19] [µM] | GI50 [2, 20] [µM] | GI50 [3] [µM] | GI50 [4, 21] [µM] | GI50 [5, 23] [µM] | GI50 [6, 25] [µM] | GI50 [7] [µM] | GI50 [8] [µM] | GI50 [9, 27] [µM] | GI50 [10] [µM] | GI50 [11, 29] [µM] | GI50 [12] [µM] | GI50 [13, 32] [µM] | further results
C/C=C1\NC(=O)c2cccc(n2)CNC(=O)C[C@@H](/C=C/CCSC(C)=O)OC(=O)[C@H](C(C)C)NC1=O [Compound 7] | 0.087 | < 0.5 | 0.087 | 0.017 | no activity | 0.05 | 0.052 | 0.03 | 0.031 | 0.082 | 0.01 | 0.02 | 0.04 | 0.046 | 0.052 | 0.03 | 0.091 | 0.02 | 0.035 |  | GI50 [4, 22]: 0.013 µM; GI50 [5, 24]: 0.027 µM; GI50 [6, 26]: 0.04 µM; GI50 [9, 28]: 0.03 µM; GI50 [11, 30]: 0.021 µM; GI50 [13, 31]: 0.008 µM
C/C=C1\NC(=O)c2cccc(n2)CNC(=O)C[C@@H](/C=C/CCSC(=O)CCCCCCC)OC(=O)[C@H](CC)NC1=O [Compound 9] | 0.045 | < 0.05 | 0.045 | 0.064 | no activity | 0.08 | 0.08 |  | 0.007 | 0.083 |  | 0.04 | 0.05 | 0.053 | 0.026 | 0.03 | 0.097 | 0.01 | 0.031 |  | GI50 [4, 22]: 0.002 µM; GI50 [5, 24]: 0.04 µM; GI50 [6, 26]: 0.05 µM; GI50 [9, 28]: 0.03 µM; GI50 [11, 30]: 0.011 µM; GI50 [13, 31]: 0.001 µM
C/C=C1\NC(=O)c2cccc(n2)CNC(=O)C[C@@H](/C=C/CCSC(=O)CCCCCCC)OC(=O)[C@H](C)NC1=O [Compound 11] | 0.029 | < 0.03 | 0.029 | 0.055 | no activity | 0.43 | 0.43 | 0.41 | 0.41 | 0.076 | 0.03 | 0.14 | 0.12 | 0.043 | 0.026 | 0.05 | 0.086 | 0.01 | 0.035 | 0.03 | GI50 [4, 22]: 0.033 µM; GI50 [5, 24]: 0.14 µM; GI50 [6, 26]: 0.12 µM; GI50 [9, 28]: 0.05 µM; GI50 [11, 30]: 0.017 µM; GI50 [13, 31]: 0.035 µM
C/C=C1\NC(=O)c2cccc(n2)CNC(=O)C[C@@H](/C=C/CCSC(C)=O)OC(=O)[C@H](Cc2ccccc2)NC1=O [Compound 13] | 0.187 |  | 0.187 | 0.261 | no activity | 0.05 |  | 0.1 |  | 0.085 | 0.02 | 0.2 | 0.09 | 0.085 | 0.011 | 0.3 | 0.081 | 0.02 | 0.042 | 0.08 | 
C/C=C1\NC(=O)c2cccc(n2)CNC(=O)C[C@@H](/C=C/CCSC(=O)CCCCCCC)OC(=O)[C@H](Cc2ccccc2)NC1=O [Compound 14] | 0.094 | < 0.1 | 0.094 | 0.059 | no activity | 0.1 | 0.1 | 0.2 | 0.2 | 0.084 | 0.01 | 0.3 | 0.22 | 0.092 | 0.012 | 0.4 | 0.085 | 0.02 | 0.043 | 0.03 | GI50 [4, 22]: 0.012 µM; GI50 [5, 24]: 0.3 µM; GI50 [6, 26]: 0.22 µM; GI50 [9, 28]: 0.4 µM; GI50 [11, 30]: 0.02 µM; GI50 [13, 31]: 0.003 µM
C/C=C1\NC(=O)c2cccc(n2)CNC(=O)C[C@@H](/C=C/CCSC(C)=O)OC(=O)[C@H](CCCCN)NC1=O [Compound 15] | 0.191 |  | 0.191 | 0.047 | no activity | 2.3 |  | 1.22 |  | 0.086 | 0.48 | 38.7 | 15.7 | 0.073 | 0.016 | 19.8 | 0.091 | 19.7 | 0.053 | 1.12 | 
C/C=C1\NC(=O)c2cccc(n2)CNC(=O)C[C@@H](/C=C/CCSC(C)=O)OC(=O)[C@H](CCCCNC(=O)OCC2c3ccccc3-c3ccccc32)NC1=O [Compound 16] | 0.181 |  | 0.181 | 0.056 | no activity | 4.2 |  | 2.1 |  | 0.091 | 6.1 | 1.3 | 21 | 0.043 | 0.019 | 49.5 | 0.093 | 0.7 | 0.051 | 17.9 | 
C/C=C1\NC(=O)c2cccc(n2)CNC(=O)C[C@@H](/C=C/CCSC(C)=O)OC(=O)[C@H](Cc2cccc3ccccc23)NC1=O [Compound 17] | 0.176 |  | 0.176 | 0.061 | no activity | 1.93 |  | 19.7 |  | 0.092 | 5.22 | 0.97 | 11 | 0.061 | 0.028 | 22 | 0.079 | 0.92 | 0.053 | 20.1 | 
